The structures appear in SMILES notation.

In one experiment the target is FP receptor (Homo sapiens, UniProt P43088). As to the kind of experiment: Radioligand competition binding assay, FP. Particulars: target PGF, compound at 10 μM in duplicate, read-out: % inhibition of control specific binding. The procedure:
(§1) DA001 was further evaluated against 32 receptor binding assays. Radioligand competition assays were conducted whereby DA001 was tested at one concentration (10 uM) in duplicate. […] It could compete with the radioligand [^3H] PGE2 binding at the EP1 and EP4 receptors, and weakly competed with the EP2 and FP receptors.
(§2) To determine the targets of DA compounds, the compound was assessed in binding assays for the family of prostanoid receptors. Both compounds were tested at a single concentration (10 μM) in duplicate. DA001 and DA021 inhibit the ligand binding of prostaglandin E2 receptors EP1, EP2 and EP4 and moderately to prostaglandin (PGF) to its receptor (FP), but not prostaglandin I (PGI2), thromoboxane A and prostaglandin D2 to their receptors.

A further experiment has as its target T1, EP1 receptor (Homo sapiens, UniProt P34995).
T1 sequence (P34995 1-402): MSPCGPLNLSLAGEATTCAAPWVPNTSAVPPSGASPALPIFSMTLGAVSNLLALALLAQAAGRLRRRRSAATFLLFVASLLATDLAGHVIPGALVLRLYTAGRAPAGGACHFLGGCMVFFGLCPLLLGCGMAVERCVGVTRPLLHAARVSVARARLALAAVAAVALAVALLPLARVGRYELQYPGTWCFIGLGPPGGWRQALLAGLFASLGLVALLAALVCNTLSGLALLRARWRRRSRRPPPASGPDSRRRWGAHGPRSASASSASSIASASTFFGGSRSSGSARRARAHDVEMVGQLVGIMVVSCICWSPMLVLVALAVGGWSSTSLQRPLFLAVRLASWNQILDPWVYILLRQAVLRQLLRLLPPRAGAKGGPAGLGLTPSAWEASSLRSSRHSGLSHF
Description: Cellular receptor functional assay (cAMP), EP1. Also on record: expressed in transfected cells; host or cells: CHO cells. To be noted: for Antagonist effect, cAMP measurement: in presence of PGE2. In kind it is cell-based. On the procedure:
To determine whether the inhibitory effect of DA001 on the ligand binding to EP receptors results from agonist or antagonist activity, DA001 was evaluated at a single concentration (10 μM) on cellular-specific receptor functional assays. Upon ligand binding, the EP receptors are activated which leads to an increase in intracellular cyclic AMP.
DA001 (10 μM) was subjected to ligand binding assay with the human EP1 or EP4 receptor over-expressing CHO cells. Results are expressed as a percent of control specific agonist response [100-(measured specific response/control specific agonist response)×100] obtained in the presence of DA001.
DA021 inhibits PGE2 ligand binding to EP1, EP2 and EP4 receptors. To determine whether the inhibitory effect is due to agonist or antagonist activity, DA021 was evaluated and compared at 1 concentration (30 uM) in cellular assays assessing receptor function. Upon ligand binding, the EP receptors are activated which leads to an increase in intracellular cyclic AMP.

Experiment [1] relates to C57BL/6 mice immunized with MOG. As to the kind of experiment: Experimental autoimmune encephalomyelitis (EAE) behavioral scores. In kind it is in vivo. Particulars: 100 mg/kg oral daily from day of immunization. On the procedure:
FIG. 15 illustrates that DA001 improves the behavioral scores of mice with experimental autoimmune encephalomyelitis. C57BL/6 mice were immunized subcutaneously at both sides of their hind limbs with myelin oligodendrocyte glycoprotein (MOG)/Complete Freund's Adjuvant (CFA) kit (Hooke Laboratories) and performed as indicated in the manufacturer's instruction. Albumin/CFA kit (Hooke Laboratories) were used as an immunization control. Oral administration of DA001 at 100 mg/kg was given daily starting from the day of immunization. The vehicle (water) was given to mice injected with MOG or albumin daily via oral administration. Animals were weighed and monitored daily and behavioral impairment was quantified based on the clinical scale. The graph presented here is a composite of four separate EAE trials. **=p≦0.01.
FIG. 16 illustrates that DA002 improves the behavioral scores of mice with experimental autoimmune encephalomyelitis. C57BL/6 mice were immunized subcutaneously at both sides of their hind limbs with myelin oligodendrocyte glycoprotein (MOG)/Complete Freund's Adjuvant (CFA) kit (Hooke Laboratories) and performed as indicated in the manufacturer's instruction. […] Animals were weighed and monitored daily and behavioral impairment was quantified based on the clinical scale. *=p≦0.05.
C57BL/6 mice were immunized subcutaneously at both sides of their hind limbs with myelin oligodendrocyte glycoprotein (MOG)/Complete Freund's Adjuvant (CFA) kit (Hooke Laboratories) and performed as in manufacturer's instruction. […] Animals were weighed and monitored daily and behavioral impairment was quantified based on the clinical scale. […]
On day 0, six-week old male C57BL/6 mice (Hong Kong University of Science and Technology, Animal Care facility) were immunized with 100 μg of myelin oligodendrocyte glycoprotein peptide (MOG35-55)/complete Freund's Adjuvant (CFA) emulsion kit (Hooke Laboratories) was injected subcutaneously at both sides of the tail base. […] The animals were also weighed and the neurological impairment was quantified daily based on the previously published criteria. […]

The target in a further experiment is EP4 receptor (Homo sapiens, UniProt P35408). Description: Radioligand competition binding assay, EP4. Particulars: EP4, target PGE2; compound at 10 μM in duplicate; read-out: % inhibition of control specific binding. The procedure:
as §1, §2

A further experiment has as its target EP2 receptor (Homo sapiens, UniProt P43116). As to the kind of experiment: Radioligand competition binding assay, EP2. To be noted: EP2, target PGE2; compound at 10 μM in duplicate; read-out: % inhibition of control specific binding. The procedure: as §1, §2

Sequence of EP2 receptor (P43116 whole entry): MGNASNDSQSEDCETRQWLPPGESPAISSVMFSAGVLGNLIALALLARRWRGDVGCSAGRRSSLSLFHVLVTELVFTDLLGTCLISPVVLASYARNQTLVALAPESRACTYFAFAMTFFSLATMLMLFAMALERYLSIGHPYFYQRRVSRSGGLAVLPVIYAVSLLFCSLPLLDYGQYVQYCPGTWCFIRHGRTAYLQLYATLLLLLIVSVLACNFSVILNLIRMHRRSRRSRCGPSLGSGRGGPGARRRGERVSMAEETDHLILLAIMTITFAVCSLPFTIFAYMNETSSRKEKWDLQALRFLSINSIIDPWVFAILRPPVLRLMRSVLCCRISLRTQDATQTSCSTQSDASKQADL
Sequence of EP4 receptor (P35408 whole entry): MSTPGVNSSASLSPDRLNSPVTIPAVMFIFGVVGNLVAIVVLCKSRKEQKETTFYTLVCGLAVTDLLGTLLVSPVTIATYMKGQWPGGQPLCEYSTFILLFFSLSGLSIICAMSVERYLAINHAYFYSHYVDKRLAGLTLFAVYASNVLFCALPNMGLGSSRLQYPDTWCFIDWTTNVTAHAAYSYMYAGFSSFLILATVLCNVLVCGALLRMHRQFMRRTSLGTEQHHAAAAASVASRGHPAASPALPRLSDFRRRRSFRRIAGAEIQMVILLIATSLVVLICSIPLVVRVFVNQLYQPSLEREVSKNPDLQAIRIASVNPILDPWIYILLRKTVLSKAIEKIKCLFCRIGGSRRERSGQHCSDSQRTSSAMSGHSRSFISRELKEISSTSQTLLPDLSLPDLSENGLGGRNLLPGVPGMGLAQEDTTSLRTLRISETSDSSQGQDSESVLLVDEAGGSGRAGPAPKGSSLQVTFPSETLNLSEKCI
Sequence of FP receptor (P43088 whole entry): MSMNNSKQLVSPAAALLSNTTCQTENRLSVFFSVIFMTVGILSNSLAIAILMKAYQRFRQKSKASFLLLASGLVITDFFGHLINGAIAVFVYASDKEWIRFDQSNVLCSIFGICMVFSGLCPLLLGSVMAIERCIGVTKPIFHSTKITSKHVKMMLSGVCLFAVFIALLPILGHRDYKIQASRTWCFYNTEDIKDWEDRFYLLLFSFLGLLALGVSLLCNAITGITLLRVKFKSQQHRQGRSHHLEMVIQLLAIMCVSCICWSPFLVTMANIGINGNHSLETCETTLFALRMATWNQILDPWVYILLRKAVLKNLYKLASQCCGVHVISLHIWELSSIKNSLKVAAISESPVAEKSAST

With `C=C(C)[C@@H]1CC[C@]2(/C=N/O)CC[C@]3(C)C(CCC4[C@@]5(C)CCC(=O)[C@@](C)(CO)[C@@H]5CC[C@]43C)C12` (stereo partly drawn) [DA021], the inhibition at 10 µM is 52% at FP receptor, 36% on EP4 receptor and 42% at EP2 receptor. On EP1 receptor (30 uM), the “Agonist effect, cAMP measurement” value amounted to 9. The “Antagonist effect, cAMP measurement” value on EP1 receptor (30 uM) worked out at 87. Besides, the “EAE scores vs vehicle-treated EAE mice” value in experiment [1] is given as “marked decrease in the EAE scores”.

On to `C=C(C)[C@@H]1CC[C@]2(C(=O)O)CC[C@]3(C)C(CC[C@@H]4[C@@]5(C)CC[C@H](O[C@@H]6OC[C@H](O)[C@H](O)[C@H]6O[C@@H]6O[C@@H](C)[C@H](O)[C@@H](O)[C@H]6O)[C@@](C)(CO)[C@@H]5CC[C@]43C)[C@@H]12` (stereo partly drawn) [DA001, 3-O-[α-L-rhamnopyranosyl-(1→2)-α-L-arabinopyranosyl]-3,23-dihydroxy-20(29)-lupen-28-oic acid], for which the figures for the inhibition at 10 µM on FP receptor, at EP4 receptor and on EP2 receptor were 27%, 49% and 31%, respectively. Besides, at EP1 receptor (10 μM), the “Antagonist effect, cAMP measurement” value was found to be 38%. Moreover, at EP1 receptor (10 μM, percent of control specific agonist response), the “Agonist effect, cAMP measurement” value turned out to be 8.1%. Moreover, the “EAE scores vs vehicle-treated EAE mice” value in experiment [1] is “marked decrease in EAE scores”.
